# Laboratory results taken from PMC7830714 (Molecular pharmaceutics, 2017).
# Biological target: T1, ABCG2 (Homo sapiens, UniProt Q9UNQ0)
# T1 sequence (Q9UNQ0 1-655): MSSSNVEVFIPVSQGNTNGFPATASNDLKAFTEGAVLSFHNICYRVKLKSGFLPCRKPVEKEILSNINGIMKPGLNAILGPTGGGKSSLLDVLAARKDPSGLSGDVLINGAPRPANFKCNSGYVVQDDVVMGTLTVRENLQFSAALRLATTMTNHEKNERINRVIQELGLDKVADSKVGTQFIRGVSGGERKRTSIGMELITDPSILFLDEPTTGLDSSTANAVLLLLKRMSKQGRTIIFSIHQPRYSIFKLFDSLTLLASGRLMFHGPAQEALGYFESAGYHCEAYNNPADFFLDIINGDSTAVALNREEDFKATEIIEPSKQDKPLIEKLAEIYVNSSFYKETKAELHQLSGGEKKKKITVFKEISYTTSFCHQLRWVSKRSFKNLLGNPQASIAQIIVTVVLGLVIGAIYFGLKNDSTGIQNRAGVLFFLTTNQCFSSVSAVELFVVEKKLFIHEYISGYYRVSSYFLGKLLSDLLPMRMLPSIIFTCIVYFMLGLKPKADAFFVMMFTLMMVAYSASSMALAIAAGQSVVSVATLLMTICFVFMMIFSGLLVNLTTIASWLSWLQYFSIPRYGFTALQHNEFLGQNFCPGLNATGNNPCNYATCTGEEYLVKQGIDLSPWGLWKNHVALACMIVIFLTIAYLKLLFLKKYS
# Experiment: inhibition of […]IAAP photoaffinity labeling in MCF7-FLV1000 membrane vesicles
# Assay type: binding
compound,measurement,value
N#Cc1ccc(-c2c(-c3ncn[nH]3)sc(N3CCOCC3)c2C#N)c(F)c1 [PF-4989216],% inhibition of photolabeling at 10 μM,~ 55
